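Five concentrations, 48 hours, 96-well plates. The concentration for 50% growth inhibition is given as GI50. TGI: total growth inhibition.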

The values that follow come from PubChem BioAssay (NCI).

Test systems include A549 NSCLC; UO-31 renal; SK-MEL-5 melanoma; OVCAR-3 ovarian; MOLT-4 leukemia; SK-MEL-28 melanoma; NCI-H460 lung; NCI-H226 lung; SK-OV-3 ovarian; A498 renal.
Experiment in all cases: NCI anticancer screen, dose series, 48 h

On to `CN(C)C1(C#N)CCC2(CC1)OCCO2`, for which the TGI in the assay with A549 NSCLC, in the assay with UO-31 renal, in the assay with SK-MEL-5 melanoma, with OVCAR-3 ovarian, with MOLT-4 leukemia and in the assay with SK-MEL-28 melanoma was above 100 µM in each case. Moreover, the TGI with NCI-H460 lung, in the assay with NCI-H226 lung, in the assay with SK-OV-3 ovarian and in the assay with A498 renal was above 100 µM throughout.

As to `CCCCc1ccc2nc(NC(=O)OC)[nH]c2c1`, the GI50 is 0.0868 µM with A549 NSCLC; 12.1 µM in the assay on UO-31 renal; 0.035 µM in the assay with SK-MEL-5 melanoma; 0.0228 µM with OVCAR-3 ovarian; 0.0382 µM in the assay with MOLT-4 leukemia; 0.087 µM in the assay with SK-MEL-28 melanoma. Also, the GI50 with NCI-H460 lung is 0.0378 µM; with NCI-H226 lung, 0.0429 µM; with SK-OV-3 ovarian, 0.0534 µM; in the assay with A498 renal it was 0.04 µM. The TGI is above 100 µM in the assay with A549 NSCLC; above 100 µM with UO-31 renal; 2.57 µM in the assay on SK-MEL-5 melanoma; 0.0502 µM with OVCAR-3 ovarian; above 100 µM in the assay with MOLT-4 leukemia; 35.3 µM with SK-MEL-28 melanoma. The TGI in the assay on NCI-H460 lung was 6.17 µM; with NCI-H226 lung, 3.32 µM; in the assay with SK-OV-3 ovarian, above 47.1 µM; with A498 renal it was 0.996 µM.

As for `COc1ccc(C(=O)/C=C/c2ccc(Cl)cc2)cc1S(N)(=O)=O`, the GI50 in the assay with A549 NSCLC was 2.69 µM; in the assay with UO-31 renal, 1.89 µM; in the assay with SK-MEL-5 melanoma it was 5.69 µM; with OVCAR-3 ovarian it was 2.04 µM; in the assay on MOLT-4 leukemia, 2.93 µM; with SK-MEL-28 melanoma, 3.24 µM. Also, the GI50 was 2.58 µM in the assay on NCI-H460 lung, 3.66 µM with NCI-H226 lung, 5.96 µM in the assay on SK-OV-3 ovarian and 10.4 µM with A498 renal. The TGI in the assay with A549 NSCLC worked out at 8.15 µM; in the assay on UO-31 renal, 5.76 µM; in the assay on SK-MEL-5 melanoma, 18 µM; in the assay with OVCAR-3 ovarian, 4.45 µM; with MOLT-4 leukemia, 9.16 µM; in the assay with SK-MEL-28 melanoma, 12.7 µM. The TGI in the assay with NCI-H460 lung was determined as 6.39 µM; in the assay with NCI-H226 lung, 14.8 µM; in the assay with SK-OV-3 ovarian, 18.6 µM; in the assay on A498 renal, 22.1 µM.

As to `Cc1nc2c(cnn2-c2ccnc3c(C(F)(F)F)cccc23)c(=O)o1`, the GI50 in the assay with A549 NSCLC, with UO-31 renal, with SK-MEL-5 melanoma, with OVCAR-3 ovarian, in the assay with MOLT-4 leukemia and with SK-MEL-28 melanoma was above 100 µM each time. Also, the GI50 in the assay on NCI-H460 lung, in the assay on NCI-H226 lung, with SK-OV-3 ovarian and with A498 renal was above 100 µM in each case. Further, the TGI in the assay with A549 NSCLC, in the assay on UO-31 renal, in the assay on SK-MEL-5 melanoma, in the assay on OVCAR-3 ovarian, in the assay with MOLT-4 leukemia and with SK-MEL-28 melanoma was above 100 µM throughout. Besides, the TGI in the assay on NCI-H460 lung, with NCI-H226 lung, in the assay with SK-OV-3 ovarian and with A498 renal was above 100 µM throughout.

`CCCOC(=O)C1CCC(=O)N1C(=O)C(Cl)Cl` (centres undefined): the TGI in the assay on A549 NSCLC, in the assay on UO-31 renal, with SK-MEL-5 melanoma, in the assay with OVCAR-3 ovarian, in the assay with MOLT-4 leukemia and in the assay with SK-MEL-28 melanoma was above 100 µM each time. Further, the TGI with NCI-H460 lung, in the assay on NCI-H226 lung, in the assay on SK-OV-3 ovarian and in the assay with A498 renal was above 100 µM each time.

Take `O=C(CC(O)(c1ccccc1)c1ccc(Cl)cc1)NC(=O)c1ccccc1O` (centres undefined): the TGI in the assay with A549 NSCLC was above 100 µM; in the assay on UO-31 renal it was 6.75 µM; in the assay on SK-MEL-5 melanoma, 19.1 µM; in the assay with OVCAR-3 ovarian, 27.4 µM; in the assay with MOLT-4 leukemia, 46.7 µM; in the assay with SK-MEL-28 melanoma, above 100 µM. Besides, the TGI with NCI-H460 lung turned out to be 26.7 µM; with NCI-H226 lung, 29.8 µM; with SK-OV-3 ovarian, 55.4 µM; in the assay on A498 renal it was 8.62 µM.

Consider `COc1ccc(CN2CCc3c(Cl)nc(N)nc3C2=O)c(OC)c1`, for which the GI50 in the assay with A549 NSCLC is 47.2 µM; in the assay on UO-31 renal, 14 µM; in the assay with SK-MEL-5 melanoma it was 13.5 µM; in the assay on OVCAR-3 ovarian, 15.4 µM; in the assay on MOLT-4 leukemia, 2.46 µM; in the assay on SK-MEL-28 melanoma, 15.7 µM. Moreover, the GI50 in the assay with NCI-H460 lung is 18.6 µM; in the assay with NCI-H226 lung, 18.3 µM; in the assay with SK-OV-3 ovarian, 24.2 µM; in the assay on A498 renal it was 23.7 µM. The TGI is above 100 µM in the assay with A549 NSCLC; 43.8 µM in the assay with UO-31 renal; 26.7 µM in the assay with SK-MEL-5 melanoma; 29.8 µM in the assay with OVCAR-3 ovarian; 34.6 µM in the assay with MOLT-4 leukemia; 29.4 µM with SK-MEL-28 melanoma. Moreover, the TGI in the assay with NCI-H460 lung worked out at 42.6 µM; in the assay on NCI-H226 lung, 41.7 µM; in the assay with SK-OV-3 ovarian, 88 µM; in the assay on A498 renal, 81.5 µM.

As for `CC(=O)O[C@@H]1C=CC(=O)C2(CC(=O)O[C@@H]2/C=C(\C)CCC=C(C)C)C1` (some centres undefined), the GI50 is 2.04 µM in the assay with A549 NSCLC; 1.58 µM in the assay with UO-31 renal; 1.31 µM in the assay with SK-MEL-5 melanoma; 0.435 µM in the assay on OVCAR-3 ovarian; 0.126 µM with MOLT-4 leukemia; 2.15 µM in the assay on SK-MEL-28 melanoma. Further, the GI50 is 0.378 µM in the assay with NCI-H460 lung, 0.623 µM in the assay on NCI-H226 lung, 2 µM with SK-OV-3 ovarian and 1.73 µM with A498 renal. Moreover, the TGI turned out to be 4.91 µM in the assay on A549 NSCLC; 3.59 µM with UO-31 renal; 3.1 µM in the assay with SK-MEL-5 melanoma; 1.6 µM in the assay with OVCAR-3 ovarian; 1.03 µM in the assay on MOLT-4 leukemia; 7.79 µM in the assay on SK-MEL-28 melanoma. In addition, the TGI is 2.2 µM with NCI-H460 lung, 4.77 µM in the assay with NCI-H226 lung, 4.49 µM with SK-OV-3 ovarian and 3.81 µM in the assay with A498 renal.

Regarding `NC(=O)C/C=C/CC(N)=O`, the TGI with A549 NSCLC, in the assay on UO-31 renal, in the assay on SK-MEL-5 melanoma, with OVCAR-3 ovarian, in the assay with SK-MEL-28 melanoma and in the assay with NCI-H460 lung was above 100 µM in each case. Moreover, the TGI with NCI-H226 lung, in the assay with SK-OV-3 ovarian and with A498 renal was above 100 µM in each case.
